ChEMBL document CHEMBL4308906, “Design and synthesis of selective CYP1B1 inhibitor via dearomatization of α-naphthoflavone” (Bioorg Med Chem, 2019)

Experiments:
CYP1A2 = target: T1, CYP1A2 (Homo sapiens, UniProt P05177); assay: Inhibition of human recombinant CYP1A2 using 7-ethoxyresorufin as substrate assessed as percent enzyme activity at 1 uM after 30 mins in presence of NADPH by EROD assay relative to control; type: ADME; parameters: scale not given: the % may be the effect or the level left; details: recombinant CYP1A2, probe 7-ethoxyresorufin, read-out: Activity
T1 sequence (P05177 whole entry): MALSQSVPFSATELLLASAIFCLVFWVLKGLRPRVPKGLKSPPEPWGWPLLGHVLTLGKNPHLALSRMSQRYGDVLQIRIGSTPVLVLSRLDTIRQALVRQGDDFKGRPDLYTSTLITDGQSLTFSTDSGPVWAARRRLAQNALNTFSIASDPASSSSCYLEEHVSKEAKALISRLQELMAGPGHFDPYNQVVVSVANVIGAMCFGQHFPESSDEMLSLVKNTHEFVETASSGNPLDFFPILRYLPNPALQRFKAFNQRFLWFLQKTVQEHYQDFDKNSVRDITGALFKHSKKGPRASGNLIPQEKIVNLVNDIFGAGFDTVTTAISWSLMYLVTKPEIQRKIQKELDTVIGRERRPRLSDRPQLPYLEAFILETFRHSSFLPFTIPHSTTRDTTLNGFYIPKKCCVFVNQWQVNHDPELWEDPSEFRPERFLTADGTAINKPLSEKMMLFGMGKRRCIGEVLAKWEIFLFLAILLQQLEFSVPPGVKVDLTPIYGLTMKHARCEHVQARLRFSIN

CYP1A1 = target: T2, CYP1A1 (Homo sapiens, UniProt P04798); assay: Inhibition of human recombinant CYP1A1 using 7-ethoxyresorufin as substrate assessed as percent enzyme activity at 1 uM after 15 mins in presence of NADPH by EROD assay relative to control; type: ADME; parameters: scale not given: the % may be the effect or the level left; details: recombinant CYP1A1, probe 7-ethoxyresorufin, read-out: Activity
T2 sequence (P04798 whole entry): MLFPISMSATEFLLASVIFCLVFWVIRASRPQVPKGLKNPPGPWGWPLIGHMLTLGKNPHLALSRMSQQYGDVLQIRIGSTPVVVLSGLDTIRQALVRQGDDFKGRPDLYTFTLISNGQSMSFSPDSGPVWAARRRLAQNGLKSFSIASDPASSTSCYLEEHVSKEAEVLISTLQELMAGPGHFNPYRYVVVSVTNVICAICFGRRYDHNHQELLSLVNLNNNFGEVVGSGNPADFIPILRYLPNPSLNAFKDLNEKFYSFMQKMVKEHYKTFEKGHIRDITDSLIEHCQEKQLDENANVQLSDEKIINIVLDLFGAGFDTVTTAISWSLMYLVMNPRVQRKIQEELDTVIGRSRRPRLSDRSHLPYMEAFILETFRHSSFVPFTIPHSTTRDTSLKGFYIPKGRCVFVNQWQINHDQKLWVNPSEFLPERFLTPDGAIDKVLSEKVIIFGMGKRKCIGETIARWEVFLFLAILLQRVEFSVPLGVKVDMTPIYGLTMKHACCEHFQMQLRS

Cytochrome P450 1B1 [1] = target: T3, Cytochrome P450 1B1 (Homo sapiens, UniProt Q16678); assay: Binding affinity to human C-terminal 4His-tagged CYP1B1 expressed in Escherichia coli DH5alpha assessed as spectral dissociation constant by spectrophotometric analysis; details: read-out: Ks
T3 sequence (Q16678 whole entry): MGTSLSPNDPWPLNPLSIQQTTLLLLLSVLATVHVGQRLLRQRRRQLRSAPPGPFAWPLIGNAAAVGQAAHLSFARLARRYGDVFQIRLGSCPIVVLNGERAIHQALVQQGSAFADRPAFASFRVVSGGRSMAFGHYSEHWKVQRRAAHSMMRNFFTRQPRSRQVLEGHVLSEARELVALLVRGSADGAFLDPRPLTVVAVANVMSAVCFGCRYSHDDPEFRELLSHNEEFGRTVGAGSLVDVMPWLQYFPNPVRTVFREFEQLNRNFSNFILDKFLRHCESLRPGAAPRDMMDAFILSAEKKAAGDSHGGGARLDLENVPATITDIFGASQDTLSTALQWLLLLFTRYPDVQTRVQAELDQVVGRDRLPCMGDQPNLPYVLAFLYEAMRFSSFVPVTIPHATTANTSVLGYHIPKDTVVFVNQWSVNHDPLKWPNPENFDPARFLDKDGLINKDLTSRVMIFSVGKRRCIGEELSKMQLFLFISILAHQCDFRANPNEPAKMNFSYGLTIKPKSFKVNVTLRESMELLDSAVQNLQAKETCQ

Cytochrome P450 1B1 [2] = target: T3, Cytochrome P450 1B1; assay: Inhibition of human recombinant CYP1B1 using 7-ethoxyresorufin as substrate assessed as percent enzyme activity at 1 uM after 30 mins in presence of NADPH by EROD assay relative to control; parameters: scale not given: the % may be the effect or the level left; details: read-out: Activity
Homo sapiens = species: Homo sapiens; assay: Selectivity ratio of IC50 for human recombinant CYP1A1 to IC50 for human recombinant CYP1B1
Cytochrome P450 1B1 [3] = target: T3, Cytochrome P450 1B1; assay: Inhibition of human recombinant CYP1B1 using 7-ethoxyresorufin as substrate after 30 mins in presence of NADPH by EROD assay
Cytochrome P450 1A1 = target: T4, Cytochrome P450 1A1 (Homo sapiens, UniProt P04798); assay: Inhibition of human recombinant CYP1A1 using 7-ethoxyresorufin as substrate after 15 mins in presence of NADPH by EROD assay; type: ADME
T4 sequence (P04798 whole entry): T2 sequence (P04798 whole entry)

Structure (SMILES)	activity at 0.5 h, 1 µM (CYP1A2) [%]	activity at 0.25 h, 1 µM (CYP1A1) [%]	Kd (Cytochrome P450 1B1 [1]) [µM]	activity at 0.5 h, 1 µM (Cytochrome P450 1B1 [2]) [%]	Ratio IC50 (Homo sapiens)	IC50 (Cytochrome P450 1B1 [3]) [µM]	IC50 (Cytochrome P450 1A1) [µM]
O=c1cc([C@H]2CC[C@@H](O)CC2)oc2c1ccc1ccccc12	77.3	87.3	> 1220	90.4			
CC(=O)SC1CCCC(c2cc(=O)c3ccc4ccccc4c3o2)C1 (mixture of isomers)	0.5	31.7		4.4			
NC1CCCC(c2cc(=O)c3ccc4ccccc4c3o2)C1 (mixture of isomers)	44.5	80.9	2.9	64.7			
C#C[C@H]1CC[C@@H](c2cc(=O)c3ccc4ccccc4c3o2)CC1	21	11.3	7.3	0.9			
CS(=O)(=O)O[C@@H]1CCC[C@@H](c2cc(=O)c3ccc4ccccc4c3o2)C1 (relative stereo)	69.1	66.5		59.9			
O=c1cc([C@H]2CC[C@@H](S)CC2)oc2c1ccc1ccccc12		3.9	9.4	0.5	1.97	0.0388	0.0762
O=c1cc(-c2ccc(S)cc2)oc2c1ccc1ccccc12	106	71.3		54.3			
O=c1cc([C@H]2C[C@H]3C=C[C@@H]2C3)oc2c1ccc1ccccc12	0	43		74			
O=c1cc(-c2cccc(S)c2)oc2c1ccc1ccccc12	56.2	18.7		9.8			
c1c[nH]cn1 [IMIDAZOLE]			1260				
O=c1cc(C2CCC(CO)CC2)oc2c1ccc1ccccc12 (mixture of isomers)	92.7	85.9		56.9			
CN(C)C(=O)Sc1ccc(-c2cc(=O)c3ccc4ccccc4c3o2)cc1	91.9	10.3		12.3			
O=c1cc(C2=CCCCC2)oc2c1ccc1ccccc12	21.2	3.2	1.1	-12.9			
O=c1cc(C2CC=CCC2)oc2c1ccc1ccccc12 (stereo not given)	36.9	38.1	3.1	6.5			
CS(=O)(=O)O[C@H]1CCC[C@@H](c2cc(=O)c3ccc4ccccc4c3o2)C1 (relative stereo)	79.1	38.6		80.5			
COc1cccc(-c2cc(=O)c3ccc4ccccc4c3o2)c1	6.1	8.7		1.9			
O=c1cc(C2CCCC(S)C2)oc2c1ccc1ccccc12 (mixture of isomers)		0	8.1	-2.5	2.02	0.0661	0.134
COc1ccc(-c2cc(=O)c3ccc4ccccc4c3o2)cc1	15.9	4		-0.5			
CN(C)C(=O)Sc1cccc(-c2cc(=O)c3ccc4ccccc4c3o2)c1	68.7	3.8		2.4			
Nc1ccc(-c2cc(=O)c3ccc4ccccc4c3o2)cc1	-16.3	2.1		-1.2			

Structure (SMILES)	activity at 0.5 h, 1 µM (CYP1A2) [%]	activity at 0.25 h, 1 µM (CYP1A1) [%]	Kd (Cytochrome P450 1B1 [1]) [µM]	activity at 0.5 h, 1 µM (Cytochrome P450 1B1 [2]) [%]	Ratio IC50 (Homo sapiens)	IC50 (Cytochrome P450 1B1 [3]) [µM]	IC50 (Cytochrome P450 1A1) [µM]
O=c1cc([C@H]2CC[C@H](O)CC2)oc2c1ccc1ccccc12	76.2	72.7	62.7	51.3			
O=c1cc(-c2cccc(O)c2)oc2c1ccc1ccccc12	37.2	8.2		1.6			
O=c1cc([C@@H]2CCC[C@@H](O)C2)oc2c1ccc1ccccc12 (relative stereo)	73.9	78		72.9			
CN(C)C(=S)Oc1ccc(-c2cc(=O)c3ccc4ccccc4c3o2)cc1	96.9	17.6		15.1			
O=c1cc([C@@H]2CCC[C@H](O)C2)oc2c1ccc1ccccc12 (relative stereo)	68.2	71.3		79.4			
O=c1cc([C@H]2C[C@@H]3C=C[C@H]2C3)oc2c1ccc1ccccc12	34	61		83			
Nc1cccc(-c2cc(=O)c3ccc4ccccc4c3o2)c1	-3.5	7.6		0.2			
O=c1cc(C23CC4CC(CC(C4)C2)C3)oc2c1ccc1ccccc12	77.8	53.9		89			
CC1CCC(c2cc(=O)c3ccc4ccccc4c3o2)CC1 (mixture of isomers)	63	50.2	5.7	23.9			
CN(C)C(=S)Oc1cccc(-c2cc(=O)c3ccc4ccccc4c3o2)c1	75.4	3.1		2.5			
N[C@H]1CC[C@H](c2cc(=O)c3ccc4ccccc4c3o2)CC1	95.4	84.2		89.5			
N[C@H]1CC[C@@H](c2cc(=O)c3ccc4ccccc4c3o2)CC1	74.5	73.7		81.6			
CS(=O)(=O)O[C@H]1CC[C@@H](c2cc(=O)c3ccc4ccccc4c3o2)CC1	57.7	66.1		51.5			
CC(C)C1CCC(c2cc(=O)c3ccc4ccccc4c3o2)CC1 (mixture of isomers)		48.3	124	27.9			
O=c1cc(C2CCCC2)oc2c1ccc1ccccc12	34.5	28		55.3			
[N-]=[N+]=NC1CCCC(c2cc(=O)c3ccc4ccccc4c3o2)C1 (mixture of isomers)	42.5	36.1		-4		0.0903	
CS(=O)(=O)O[C@H]1CC[C@H](c2cc(=O)c3ccc4ccccc4c3o2)CC1	80.3	69.9		72.5			
C#C[C@H]1CC[C@H](c2cc(=O)c3ccc4ccccc4c3o2)CC1	8.8	0.5	264	15			
CS(=O)(=O)OCC1CCC(c2cc(=O)c3ccc4ccccc4c3o2)CC1 (racemic)	96.4	78.1		50.1			
